Earlier results as cited in US20230226068A1, “METHOD, SYSTEM, FORMULATION AND KIT FOR THE TREATMENT OF ONYCHOMYCOSIS” (priority 2021, published 2023).
Like-named read-outs stand apart in the source and are kept apart here.

Details: for side effects: po

## CCC(C)(C)c1ccc(CC(C)CN2C[C@@H](C)O[C@@H](C)C2)cc1 (stereo partly shown) [Amorolfine]
In vivo
  safety profile: local skin irritations

## Cc1cc(C2CCCCC2)n(O)c(=O)c1 [Ciclopirox]
In vivo
  safety profile: local skin irritations

## C=C1CCN([C@H](C)[C@](O)(Cn2cncn2)c2ccc(F)cc2F)CC1 [Efinaconazole]
In vivo
  safety profile: local skin irritations

## OC(Cn1cncn1)(Cn1cncn1)c1ccc(F)cc1F [Fluconazole]
In vivo
  side effects: liver enzyme abnormalities, headaches, as well as gastrointestinal problems or rashes

## CCC(C)n1ncn(-c2ccc(N3CCN(c4ccc(OCC5COC(Cn6cncn6)(c6ccc(Cl)cc6Cl)O5)cc4)CC3)cc2)c1=O (stereo not shown) [Itraconazole]
In vivo
  side effects: liver enzyme abnormalities, headaches, as well as gastrointestinal problems or rashes

## OB1OCc2cc(F)ccc21 [Tavaborole]
Topical treatment
  safety profile: local skin irritations

## CN(C/C=C/C#CC(C)(C)C)Cc1cccc2ccccc12 [Terbinafine]
In vivo
  side effects: liver enzyme abnormalities, headaches, as well as gastrointestinal problems or rashes
